{"source": "patent US7667054B2", "about": "“Cytotoxic agents comprising new taxanes” (priority 2004, dated 2010)", "key": {"[1]": {"test_system": "A549", "test": "activity of the taxoids on A549 (procedure of Riou, Naudin and Lavelle)", "format": "cell-based", "settings": "Homo sapiens, A549, read-out: A549", "description": "(§1) The activity of the compounds of the present invention were determined following the proceeding described by Riou, Naudin and Lavelle in Biochemical and Biophysical Research Communications; Vol. 187, No1, 1992, p 164-170."}, "[2]": {"test_system": "MCF7", "test": "activity of the taxoids on MCF7 (procedure of Riou, Naudin and Lavelle)", "format": "cell-based", "settings": "Homo sapiens, MCF7, read-out: MCF7", "description": "as §1"}, "[3]": {"test_system": "A-375 cells", "test": "in vitro potency of huC242-Taxoid conjugate and free taxoid, WST-8 assay, antigen negative cells", "format": "cell-based, human", "settings": "for IC50: human melanoma A-375 cells (antigen negative), 4 days, WST-8", "description": "(§2) Samples of free taxoid or huC242-Taxoid conjugate were added to a 96-well flat bottomed tissue culture plate and titrated using serial dilutions ranging from 1×10^−12 M to 3×10^−7 M. Human colon tumor cells, COLO 205, or human melanoma cells, A-375, were added to the wells in such a way that there were triplicate samples for each drug concentration for each cell line. The plates were incubated at 37° C. in an atmosphere of 5% CO2 for 4 days.\n(§3) At the end of the incubation period, 20 μl of the tetrazolium reagent WST-8 (2-(2-methoxy-nitrophenyl)-3-(4-nitrophenyl)-5-(2,4-disulfophenyl)-2-tetrazolium, monosodium salt]) was added to each well, and the plates were returned to the incubator for 2 hours. The absorbance in each well of the plates was then measured using the Molecular Devices plate reader at 450 nm. Surviving fraction of cells at each concentration of taxoid or conjugate are plotted in FIGS. 2a, b."}, "[4]": {"test_system": "COLO 205 cells", "test": "in vitro potency of huC242-Taxoid conjugate and free taxoid, WST-8 assay, antigen positive cells", "format": "cell-based", "settings": "human colon cancer COLO 205 cells (antigen positive), 4 days", "description": "as §2, §3"}}, "data": [{"molecule": "COc1ccc(OC)c(C(=O)O[C@H]2[C@@H]3[C@]4(OC(C)=O)CO[C@@H]4C[C@H]4O[C@@H]([C@H](OC(=O)N(C)C)C5=C(C)[C@@H](OC(=O)[C@H](O)[C@H](C=C(C)C)NC(=O)OC(C)(C)C)C[C@]2(O)C5(C)C)[C@@]34C)c1", "note": "[IGT-15-014]", "values": [{"measurement": "IC50", "setting": "[1]", "value": 30, "unit": "pM"}, {"measurement": "IC50", "setting": "[2]", "value": 24, "unit": "pM"}]}, {"molecule": "COc1ccc(OC)c(C(=O)O[C@H]2[C@@H]3[C@]4(OC(C)=O)CO[C@@H]4C[C@H]4O[C@@H]([C@H](OC(=O)NCC(C)(C)SSC)C5=C(C)[C@@H](OC(=O)[C@H](O)[C@@H](NC(=O)OC(C)(C)C)c6ccco6)C[C@]2(O)C5(C)C)[C@@]34C)c1", "note": "[IGT-15-075, 7α,9α-epoxy-3′-dephenyl-3′-(2-furyl)-2-debenzoyl-2-(2,5-dimethoxybenzoyl)-10-(N-2,2-dimethyl-2-methyidithio-ethylcarbamoyl)-docetaxel]", "values": [{"measurement": "IC50", "setting": "[3]; 96 h", "value": "~100", "unit": "pM"}, {"measurement": "IC50", "setting": "[4]; 96 h", "value": "~100", "unit": "pM"}]}, {"molecule": "huC242-taxoid (conjugate, chains of the INN, looked up, taxoid payload conjugate) VH: QVQLVQSGAEVKKPGETVKISCKASDYTFTYYGMNWVKQAPGQGLKWMGWIDTTTGEPTYAQKFQGRIAFSLETSASTAYLQIKSLKSEDTATYFCARRGPYNWYFDVWGQGTTVTVSS VL: DIVMTQSPLSVPVTPGEPVSISCRSSKSLLHSNGNTYLYWFLQRPGQSPQLLIYRMSNLVSGVPDRFSGSGSGTAFTLRISRVEAEDVGVYYCLQHLEYPFTFGPGTKLELK", "values": [{"measurement": "fold less sensitive, antigen negative cells vs COLO 205", "setting": "[3]; A-375 versus COLO 205", "value": "about 150 fold"}, {"measurement": "IC50", "setting": "[3]", "value": 12000, "unit": "pM"}, {"measurement": "IC50", "setting": "[4]", "value": 80, "unit": "pM"}]}]}
